Measurements reported in ChEMBL document CHEMBL5143529, “Design, synthesis, and biological evaluation of novel (4-(1,2,4-oxadiazol-5-yl)phenyl)-2-aminoacetamide derivatives as multifunctional agents for the treatment of Alzheimer's disease” (Eur J Med Chem, 2022).

Target: Acetylcholinesterase (Electrophorus electricus, UniProt O42275)
Assay: Inhibition of electric eel AChE using acetylthiocholine iodide as substrate preincubated for 20 mins followed by substrate addition and measured after 5 mins by DTNB-reagent based Ellman's method
Settings: not given

Chain of Acetylcholinesterase (O42275 whole entry): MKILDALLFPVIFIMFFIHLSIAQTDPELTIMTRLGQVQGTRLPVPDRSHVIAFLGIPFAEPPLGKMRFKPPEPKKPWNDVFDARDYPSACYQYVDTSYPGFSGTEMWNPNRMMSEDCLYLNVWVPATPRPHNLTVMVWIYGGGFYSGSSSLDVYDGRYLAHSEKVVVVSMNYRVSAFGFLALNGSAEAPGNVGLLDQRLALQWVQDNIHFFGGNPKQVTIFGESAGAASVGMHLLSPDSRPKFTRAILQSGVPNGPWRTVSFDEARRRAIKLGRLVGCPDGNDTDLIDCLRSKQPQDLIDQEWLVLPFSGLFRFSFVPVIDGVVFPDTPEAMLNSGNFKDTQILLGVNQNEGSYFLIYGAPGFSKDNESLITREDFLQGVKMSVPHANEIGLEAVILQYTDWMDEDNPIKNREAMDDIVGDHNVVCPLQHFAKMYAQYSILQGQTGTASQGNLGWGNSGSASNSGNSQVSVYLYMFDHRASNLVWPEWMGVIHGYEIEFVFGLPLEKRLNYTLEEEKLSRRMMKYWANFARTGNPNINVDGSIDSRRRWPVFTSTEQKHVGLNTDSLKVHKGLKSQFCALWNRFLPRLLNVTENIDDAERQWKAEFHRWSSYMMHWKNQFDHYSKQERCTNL

SMILES	IC50
O=C(CNc1ccc(Cl)cc1)Nc1ccc(-c2nc(-c3ccnc(Nc4ccc(OC(F)(F)F)cc4)c3)no2)cc1	45.2 µM
O=C(CNCc1ccccc1)Nc1ccc(-c2nc(-c3ccnc(Nc4ccc(OC(F)(F)F)cc4)c3)no2)cc1	> 50 µM
O=C(CNc1ccc(F)c(F)c1)Nc1ccc(-c2nc(-c3ccnc(Nc4ccc(OC(F)(F)F)cc4)c3)no2)cc1	> 50 µM
O=C(CNc1cccc(F)c1)Nc1ccc(-c2nc(-c3ccnc(Nc4ccc(OC(F)(F)F)cc4)c3)no2)cc1	> 50 µM
CCCCNCC(=O)Nc1ccc(-c2nc(-c3ccnc(Nc4ccc(OC(F)(F)F)cc4)c3)no2)cc1	> 50 µM
COc1ccc(NCC(=O)Nc2ccc(-c3nc(-c4ccnc(Nc5ccc(OC(F)(F)F)cc5)c4)no3)cc2)cc1	> 50 µM
Cc1ccc(NCC(=O)Nc2ccc(-c3nc(-c4ccnc(Nc5ccc(OC(F)(F)F)cc5)c4)no3)cc2)cc1	> 50 µM
O=C(CNc1cccc(Cl)c1)Nc1ccc(-c2nc(-c3ccnc(Nc4ccc(OC(F)(F)F)cc4)c3)no2)cc1	> 50 µM
Cc1cccc(NCC(=O)Nc2ccc(-c3nc(-c4ccnc(Nc5ccc(OC(F)(F)F)cc5)c4)no3)cc2)c1	> 50 µM
O=C(CNC1CC1)Nc1ccc(-c2nc(-c3ccnc(Nc4ccc(OC(F)(F)F)cc4)c3)no2)cc1	48.9 µM
O=C(CNc1ccc(Br)cc1)Nc1ccc(-c2nc(-c3ccnc(Nc4ccc(OC(F)(F)F)cc4)c3)no2)cc1	> 50 µM
CCCNCC(=O)Nc1ccc(-c2nc(-c3ccnc(Nc4ccc(OC(F)(F)F)cc4)c3)no2)cc1	> 50 µM

Test system: PC-12
Assay: Neuroprotective activity against H202-induced cell death in rat PC-12 cells assessed as cell viability at 5 uM pretreated for 3 hrs followed by H2O2 stimulation and measured after 24 hrs by MTT assay relative to control
Assay type: functional
Settings: time 27 hrs, read-out: Activity

SMILES	viability at 5 µM
O=C(CNc1ccc(Cl)cc1)Nc1ccc(-c2nc(-c3ccnc(Nc4ccc(OC(F)(F)F)cc4)c3)no2)cc1	43.6%
O=C(CNCc1ccccc1)Nc1ccc(-c2nc(-c3ccnc(Nc4ccc(OC(F)(F)F)cc4)c3)no2)cc1	43.2%
O=C(CNc1ccc(F)c(F)c1)Nc1ccc(-c2nc(-c3ccnc(Nc4ccc(OC(F)(F)F)cc4)c3)no2)cc1	35.7%
O=C(CNc1cccc(F)c1)Nc1ccc(-c2nc(-c3ccnc(Nc4ccc(OC(F)(F)F)cc4)c3)no2)cc1	39.4%
CCCCNCC(=O)Nc1ccc(-c2nc(-c3ccnc(Nc4ccc(OC(F)(F)F)cc4)c3)no2)cc1	40%
COc1ccc(NCC(=O)Nc2ccc(-c3nc(-c4ccnc(Nc5ccc(OC(F)(F)F)cc5)c4)no3)cc2)cc1	33.2%
Cc1ccc(NCC(=O)Nc2ccc(-c3nc(-c4ccnc(Nc5ccc(OC(F)(F)F)cc5)c4)no3)cc2)cc1	37.9%
O=C(CNc1cccc(Cl)c1)Nc1ccc(-c2nc(-c3ccnc(Nc4ccc(OC(F)(F)F)cc4)c3)no2)cc1	34.1%
Cc1cccc(NCC(=O)Nc2ccc(-c3nc(-c4ccnc(Nc5ccc(OC(F)(F)F)cc5)c4)no3)cc2)c1	50.1%
O=C(CNC1CC1)Nc1ccc(-c2nc(-c3ccnc(Nc4ccc(OC(F)(F)F)cc4)c3)no2)cc1	33.5%
O=C(CNc1ccc(Br)cc1)Nc1ccc(-c2nc(-c3ccnc(Nc4ccc(OC(F)(F)F)cc4)c3)no2)cc1	37.8%
CCCNCC(=O)Nc1ccc(-c2nc(-c3ccnc(Nc4ccc(OC(F)(F)F)cc4)c3)no2)cc1	41.4%

Test system: PC-12
Assay: Neuroprotective activity against H202-induced cell death in rat PC-12 cells assessed as cell viability at 20 uM pretreated for 3 hrs followed by H2O2 stimulation and measured after 24 hrs by MTT assay relative to control
Assay type: functional
Settings: time 27 hrs, read-out: Activity

SMILES	viability at 20 µM
O=C(CNc1ccc(Cl)cc1)Nc1ccc(-c2nc(-c3ccnc(Nc4ccc(OC(F)(F)F)cc4)c3)no2)cc1	61.6%
O=C(CNCc1ccccc1)Nc1ccc(-c2nc(-c3ccnc(Nc4ccc(OC(F)(F)F)cc4)c3)no2)cc1	53.5%
O=C(CNc1ccc(F)c(F)c1)Nc1ccc(-c2nc(-c3ccnc(Nc4ccc(OC(F)(F)F)cc4)c3)no2)cc1	45.8%
O=C(CNc1cccc(F)c1)Nc1ccc(-c2nc(-c3ccnc(Nc4ccc(OC(F)(F)F)cc4)c3)no2)cc1	58.5%
CCCCNCC(=O)Nc1ccc(-c2nc(-c3ccnc(Nc4ccc(OC(F)(F)F)cc4)c3)no2)cc1	44.4%
COc1ccc(NCC(=O)Nc2ccc(-c3nc(-c4ccnc(Nc5ccc(OC(F)(F)F)cc5)c4)no3)cc2)cc1	44.6%
Cc1ccc(NCC(=O)Nc2ccc(-c3nc(-c4ccnc(Nc5ccc(OC(F)(F)F)cc5)c4)no3)cc2)cc1	49.1%
O=C(CNc1cccc(Cl)c1)Nc1ccc(-c2nc(-c3ccnc(Nc4ccc(OC(F)(F)F)cc4)c3)no2)cc1	37.7%
Cc1cccc(NCC(=O)Nc2ccc(-c3nc(-c4ccnc(Nc5ccc(OC(F)(F)F)cc5)c4)no3)cc2)c1	50.7%
O=C(CNC1CC1)Nc1ccc(-c2nc(-c3ccnc(Nc4ccc(OC(F)(F)F)cc4)c3)no2)cc1	46.7%
O=C(CNc1ccc(Br)cc1)Nc1ccc(-c2nc(-c3ccnc(Nc4ccc(OC(F)(F)F)cc4)c3)no2)cc1	46.5%
CCCNCC(=O)Nc1ccc(-c2nc(-c3ccnc(Nc4ccc(OC(F)(F)F)cc4)c3)no2)cc1	52.8%

Test system: not listed separately
Assay: Cytotoxicity against rat PC-12 cells assessed as cell viability at 25 uM incubated for 24 hrs by MTT assay relative to control
Assay type: toxicity, cell-based
Settings: read-out: Activity

SMILES	viability at 24 h, 25 µM
O=C(CNc1ccc(Cl)cc1)Nc1ccc(-c2nc(-c3ccnc(Nc4ccc(OC(F)(F)F)cc4)c3)no2)cc1	98.8%
O=C(CNCc1ccccc1)Nc1ccc(-c2nc(-c3ccnc(Nc4ccc(OC(F)(F)F)cc4)c3)no2)cc1	99.7%
O=C(CNc1ccc(F)c(F)c1)Nc1ccc(-c2nc(-c3ccnc(Nc4ccc(OC(F)(F)F)cc4)c3)no2)cc1	99.4%
O=C(CNc1cccc(F)c1)Nc1ccc(-c2nc(-c3ccnc(Nc4ccc(OC(F)(F)F)cc4)c3)no2)cc1	99.6%
CCCCNCC(=O)Nc1ccc(-c2nc(-c3ccnc(Nc4ccc(OC(F)(F)F)cc4)c3)no2)cc1	99.9%
COc1ccc(NCC(=O)Nc2ccc(-c3nc(-c4ccnc(Nc5ccc(OC(F)(F)F)cc5)c4)no3)cc2)cc1	99%
Cc1ccc(NCC(=O)Nc2ccc(-c3nc(-c4ccnc(Nc5ccc(OC(F)(F)F)cc5)c4)no3)cc2)cc1	100%
O=C(CNc1cccc(Cl)c1)Nc1ccc(-c2nc(-c3ccnc(Nc4ccc(OC(F)(F)F)cc4)c3)no2)cc1	99.4%
Cc1cccc(NCC(=O)Nc2ccc(-c3nc(-c4ccnc(Nc5ccc(OC(F)(F)F)cc5)c4)no3)cc2)c1	99.6%
O=C(CNC1CC1)Nc1ccc(-c2nc(-c3ccnc(Nc4ccc(OC(F)(F)F)cc4)c3)no2)cc1	100%
O=C(CNc1ccc(Br)cc1)Nc1ccc(-c2nc(-c3ccnc(Nc4ccc(OC(F)(F)F)cc4)c3)no2)cc1	99.7%
CCCNCC(=O)Nc1ccc(-c2nc(-c3ccnc(Nc4ccc(OC(F)(F)F)cc4)c3)no2)cc1	99.6%

Test system: not listed separately
Assay: Cytotoxicity against rat PC-12 cells assessed as cell viability at 50 uM incubated for 24 hrs by MTT assay relative to control
Assay type: toxicity, cell-based
Settings: read-out: Activity

SMILES	viability at 24 h, 50 µM
O=C(CNc1ccc(Cl)cc1)Nc1ccc(-c2nc(-c3ccnc(Nc4ccc(OC(F)(F)F)cc4)c3)no2)cc1	98.2%
O=C(CNCc1ccccc1)Nc1ccc(-c2nc(-c3ccnc(Nc4ccc(OC(F)(F)F)cc4)c3)no2)cc1	99.5%
O=C(CNc1ccc(F)c(F)c1)Nc1ccc(-c2nc(-c3ccnc(Nc4ccc(OC(F)(F)F)cc4)c3)no2)cc1	97.3%
O=C(CNc1cccc(F)c1)Nc1ccc(-c2nc(-c3ccnc(Nc4ccc(OC(F)(F)F)cc4)c3)no2)cc1	99.3%
CCCCNCC(=O)Nc1ccc(-c2nc(-c3ccnc(Nc4ccc(OC(F)(F)F)cc4)c3)no2)cc1	98.9%
COc1ccc(NCC(=O)Nc2ccc(-c3nc(-c4ccnc(Nc5ccc(OC(F)(F)F)cc5)c4)no3)cc2)cc1	98.7%
Cc1ccc(NCC(=O)Nc2ccc(-c3nc(-c4ccnc(Nc5ccc(OC(F)(F)F)cc5)c4)no3)cc2)cc1	99.8%
O=C(CNc1cccc(Cl)c1)Nc1ccc(-c2nc(-c3ccnc(Nc4ccc(OC(F)(F)F)cc4)c3)no2)cc1	98.7%
Cc1cccc(NCC(=O)Nc2ccc(-c3nc(-c4ccnc(Nc5ccc(OC(F)(F)F)cc5)c4)no3)cc2)c1	99.2%
O=C(CNC1CC1)Nc1ccc(-c2nc(-c3ccnc(Nc4ccc(OC(F)(F)F)cc4)c3)no2)cc1	99.7%
O=C(CNc1ccc(Br)cc1)Nc1ccc(-c2nc(-c3ccnc(Nc4ccc(OC(F)(F)F)cc4)c3)no2)cc1	99.1%
CCCNCC(=O)Nc1ccc(-c2nc(-c3ccnc(Nc4ccc(OC(F)(F)F)cc4)c3)no2)cc1	99.5%

Target: Cholinesterase (Equus caballus, UniProt P81908)
Assay: not given
Settings: not given

Chain of Cholinesterase (P81908 whole entry): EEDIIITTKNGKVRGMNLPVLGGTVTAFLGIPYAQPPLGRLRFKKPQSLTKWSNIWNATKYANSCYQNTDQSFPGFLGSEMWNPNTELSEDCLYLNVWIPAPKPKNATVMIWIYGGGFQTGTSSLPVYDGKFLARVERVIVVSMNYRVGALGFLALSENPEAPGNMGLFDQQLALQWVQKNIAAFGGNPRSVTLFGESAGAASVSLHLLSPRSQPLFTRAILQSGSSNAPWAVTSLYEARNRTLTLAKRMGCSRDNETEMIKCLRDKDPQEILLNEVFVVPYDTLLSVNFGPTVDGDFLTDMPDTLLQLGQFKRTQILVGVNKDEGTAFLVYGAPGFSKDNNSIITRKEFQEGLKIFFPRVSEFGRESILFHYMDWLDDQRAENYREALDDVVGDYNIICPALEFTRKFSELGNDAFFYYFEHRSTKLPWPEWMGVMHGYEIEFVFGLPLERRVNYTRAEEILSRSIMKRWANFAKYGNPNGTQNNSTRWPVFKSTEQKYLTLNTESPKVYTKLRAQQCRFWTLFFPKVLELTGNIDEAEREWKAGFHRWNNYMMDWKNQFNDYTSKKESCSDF

SMILES	IC50
O=C(CNc1ccc(Cl)cc1)Nc1ccc(-c2nc(-c3ccnc(Nc4ccc(OC(F)(F)F)cc4)c3)no2)cc1	7.39 µM
O=C(CNCc1ccccc1)Nc1ccc(-c2nc(-c3ccnc(Nc4ccc(OC(F)(F)F)cc4)c3)no2)cc1	39.2 µM
O=C(CNc1ccc(F)c(F)c1)Nc1ccc(-c2nc(-c3ccnc(Nc4ccc(OC(F)(F)F)cc4)c3)no2)cc1	9.88 µM
O=C(CNc1cccc(F)c1)Nc1ccc(-c2nc(-c3ccnc(Nc4ccc(OC(F)(F)F)cc4)c3)no2)cc1	5.51 µM
CCCCNCC(=O)Nc1ccc(-c2nc(-c3ccnc(Nc4ccc(OC(F)(F)F)cc4)c3)no2)cc1	15.7 µM
COc1ccc(NCC(=O)Nc2ccc(-c3nc(-c4ccnc(Nc5ccc(OC(F)(F)F)cc5)c4)no3)cc2)cc1	> 50 µM
Cc1ccc(NCC(=O)Nc2ccc(-c3nc(-c4ccnc(Nc5ccc(OC(F)(F)F)cc5)c4)no3)cc2)cc1	19.3 µM
O=C(CNc1cccc(Cl)c1)Nc1ccc(-c2nc(-c3ccnc(Nc4ccc(OC(F)(F)F)cc4)c3)no2)cc1	12.8 µM
Cc1cccc(NCC(=O)Nc2ccc(-c3nc(-c4ccnc(Nc5ccc(OC(F)(F)F)cc5)c4)no3)cc2)c1	20.2 µM
O=C(CNC1CC1)Nc1ccc(-c2nc(-c3ccnc(Nc4ccc(OC(F)(F)F)cc4)c3)no2)cc1	24.3 µM
O=C(CNc1ccc(Br)cc1)Nc1ccc(-c2nc(-c3ccnc(Nc4ccc(OC(F)(F)F)cc4)c3)no2)cc1	10.5 µM
CCCNCC(=O)Nc1ccc(-c2nc(-c3ccnc(Nc4ccc(OC(F)(F)F)cc4)c3)no2)cc1	23.3 µM

Test system: not listed separately
Assay: cells
Settings: Mus musculus, BV-2
Description: Inhibition of NO production in LPS-induced mouse BV-2 cells pretreated for 1 hr followed by LPS stimulation and measured after 24 hrs by ELISA

SMILES	IC50
O=C(CNc1ccc(Cl)cc1)Nc1ccc(-c2nc(-c3ccnc(Nc4ccc(OC(F)(F)F)cc4)c3)no2)cc1	2.58 µM
O=C(CNCc1ccccc1)Nc1ccc(-c2nc(-c3ccnc(Nc4ccc(OC(F)(F)F)cc4)c3)no2)cc1	7.48 µM
O=C(CNc1ccc(F)c(F)c1)Nc1ccc(-c2nc(-c3ccnc(Nc4ccc(OC(F)(F)F)cc4)c3)no2)cc1	4.8 µM
O=C(CNc1cccc(F)c1)Nc1ccc(-c2nc(-c3ccnc(Nc4ccc(OC(F)(F)F)cc4)c3)no2)cc1	3.16 µM
CCCCNCC(=O)Nc1ccc(-c2nc(-c3ccnc(Nc4ccc(OC(F)(F)F)cc4)c3)no2)cc1	8.24 µM
COc1ccc(NCC(=O)Nc2ccc(-c3nc(-c4ccnc(Nc5ccc(OC(F)(F)F)cc5)c4)no3)cc2)cc1	6.95 µM
Cc1ccc(NCC(=O)Nc2ccc(-c3nc(-c4ccnc(Nc5ccc(OC(F)(F)F)cc5)c4)no3)cc2)cc1	5.97 µM
O=C(CNc1cccc(Cl)c1)Nc1ccc(-c2nc(-c3ccnc(Nc4ccc(OC(F)(F)F)cc4)c3)no2)cc1	3.66 µM
Cc1cccc(NCC(=O)Nc2ccc(-c3nc(-c4ccnc(Nc5ccc(OC(F)(F)F)cc5)c4)no3)cc2)c1	7.29 µM
O=C(CNC1CC1)Nc1ccc(-c2nc(-c3ccnc(Nc4ccc(OC(F)(F)F)cc4)c3)no2)cc1	5.67 µM
O=C(CNc1ccc(Br)cc1)Nc1ccc(-c2nc(-c3ccnc(Nc4ccc(OC(F)(F)F)cc4)c3)no2)cc1	4.22 µM
CCCNCC(=O)Nc1ccc(-c2nc(-c3ccnc(Nc4ccc(OC(F)(F)F)cc4)c3)no2)cc1	7.82 µM
